Experimental data from ChEMBL document CHEMBL4390642, “The in vivo antinociceptive and μ-opioid receptor activating effects of the combination of N-phenyl-2',4'-dimethyl-4,5'-bi-1,3-thiazol-2-amines and naloxone” (Eur J Med Chem, 2019).
Calls of active or inactive are those of the source. The calls are words filed in the database; no cut-off is given here.

Key:
Mu-type opioid receptor [1] = molecular target: T1, Mu-type opioid receptor (Homo sapiens, UniProt P35372); assay: Agonist activity at human mu opioid receptor expressed in CHOK1 cells coexpressing Galpha15 assessed as intracellular calcium AUC in presence of mu opioid receptor antagonist naloxone and incubated for 1 hr measured for 90 secs at 1.5 sec interval by FLIPR assay to morphine; assay type: functional, cell-based; set-up: concentration or dose not given beside the values
T1 sequence (P35372 whole entry): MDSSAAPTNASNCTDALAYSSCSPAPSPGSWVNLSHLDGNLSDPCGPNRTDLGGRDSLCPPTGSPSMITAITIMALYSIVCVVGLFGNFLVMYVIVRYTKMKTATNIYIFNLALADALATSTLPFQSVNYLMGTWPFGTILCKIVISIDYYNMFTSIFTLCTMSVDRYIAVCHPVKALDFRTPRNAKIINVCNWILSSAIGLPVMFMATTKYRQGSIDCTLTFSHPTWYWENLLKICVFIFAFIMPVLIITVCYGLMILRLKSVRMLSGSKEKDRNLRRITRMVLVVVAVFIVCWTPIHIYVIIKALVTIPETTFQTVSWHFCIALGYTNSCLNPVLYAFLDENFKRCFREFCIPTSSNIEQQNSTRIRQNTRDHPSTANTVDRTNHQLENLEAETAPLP

Mu-type opioid receptor [2] = molecular target: T1, Mu-type opioid receptor; assay: Agonist activity at human mu opioid receptor expressed in CHOK1 cells coexpressing Galpha15 assessed as increase in intracellular calcium flux in presence of mu opioid receptor antagonist naloxone and incubated for 1 hr measured for 90 secs at 1.5 sec interval by FLIPR assay; assay type: functional, cell-based
Mus musculus [3] = assay: Antinociceptive activity in C57BL/6 mouse model of thermal-induced nociception assessed as inhibition of tail-flick response by measuring AUC of tail flick test at 50 mg/kg, iv measured up to 30 to 180 mins in presence of 10 mg/kg, sc opioid receptor antagonist naloxone by tail flick test; assay type: functional, organism-based
Mus musculus [4] = assay: Antinociceptive activity in C57BL/6 mouse model of thermal-induced nociception assessed as inhibition of tail-flick response by measuring AUC of tail flick test at 25 to 100 mg/kg, iv measured up to 30 to 180 mins in presence of 10 mg/kg, sc opioid receptor antagonist naloxone by tail flick test; assay type: functional, organism-based
Mus musculus [5] = assay: Antinociceptive activity in C57BL/6 mouse model of thermal-induced nociception at 100 mg/kg measured at 30 mins post injection by tail flick test; assay type: functional, organism-based
[6] = Toxicity in iv dosed C57BL/6 mouse assessed as safe dose causing no animal death measured up to 30 to 180 mins during tail-flick test; assay type: organism-based; details: in vivo
[7] = Toxicity in C57BL/6 mouse at 100 mg/kg, iv measured up to 30 to 180 mins during tail-flick test; assay type: organism-based; details: in vivo
Mus musculus [8] = assay: Antinociceptive activity in C57BL/6 mouse model of thermal-induced nociception assessed as inhibition of tail-flick response at 100 mg/kg, iv measured up to 30 to 180 mins in presence of opioid receptor antagonist naloxone at 100 ng/kg, sc by tail flick test; assay type: functional, organism-based
Mus musculus [9] = assay: Antinociceptive activity in C57BL/6 mouse model of thermal-induced nociception assessed as inhibition of tail-flick response at 100 mg/kg, iv measured at 30 mins in presence of opioid receptor antagonist naloxone at 100 ng/kg, sc by tail flick test; assay type: functional, organism-based
Mus musculus [10] = assay: (§1) Antinociceptive activity in C57BL/6 mouse model of thermal-induced nociception assessed as inhibition of tail-flick response by measuring AUC of tail flick test at 100 mg/kg, iv measured up to 30 to 180 mins in presence of 10 mg/kg, sc opioid receptor antagonist naloxone by tail flick test; assay type: functional, organism-based
Mus musculus [11] = assay: as §1, with “assessed as naloxone ED50 for inhibition of” for “assessed as inhibition of”; assay type: functional
Mus musculus [12] = assay: Antinociceptive activity in C57BL/6 mouse model of thermal-induced nociception assessed as inhibition of tail-flick response by measuring AUC of tail flick test at 25 mg/kg, iv measured up to 30 to 180 mins in presence of 10 mg/kg, sc opioid receptor antagonist naloxone by tail flick test; assay type: functional, organism-based
Mus musculus [13] = assay: Antinociceptive activity in C57BL/6 mouse model of thermal-induced nociception at 100 mg/kg, sc measured up to 30 to 180 mins by tail flick test; assay type: functional, organism-based

Cc1nc(C)c(-c2csc(Nc3ccc(Br)cc3C)n2)s1
Activity (Mu-type opioid receptor [1]): inactive
EC50 (Mu-type opioid receptor [2]): > 30 µM

CCc1cccc(C)c1Nc1nc(-c2sc(C)nc2C)cs1
Activity (Mu-type opioid receptor [1]): 38.2%
EC50 (Mu-type opioid receptor [2]): 2.8 µM

CCc1ccccc1Nc1nc(-c2oc(C)nc2C)cs1
Activity (Mu-type opioid receptor [1]): 76.2%
EC50 (Mu-type opioid receptor [2]): 3.3 µM

CCc1nc(C)c(-c2csc(Nc3ccccc3CC)n2)s1
Activity (Mu-type opioid receptor [1]): 32.5%
EC50 (Mu-type opioid receptor [2]): 8.6 µM

Cc1nc(C)c(-c2csc(Nc3ccccc3CC(F)(F)F)n2)s1
Activity (Mu-type opioid receptor [1]): 72.1%
EC50 (Mu-type opioid receptor [2]): 8.5 µM

COc1ccc(Nc2nc(-c3sc(C)nc3C)cs2)c(OC)c1
Activity (Mu-type opioid receptor [1]): 45.2%
EC50 (Mu-type opioid receptor [2]): 19 µM

Cc1nc(C)c(-c2csc(Nc3c(C)cccc3F)n2)s1
Activity (Mu-type opioid receptor [1]): 32%
EC50 (Mu-type opioid receptor [2]): 4.2 µM

Cc1nc(C)c(-c2csc(Nc3cccc(F)c3C)n2)s1
Activity (Mu-type opioid receptor [1]): 57.9%
EC50 (Mu-type opioid receptor [2]): 10.1 µM

CCc1ccccc1Nc1nc(-c2nccs2)cs1
Activity (Mu-type opioid receptor [1]): inactive
EC50 (Mu-type opioid receptor [2]): > 30 µM

COc1ccc(Nc2nc(-c3sc(C)nc3C)cs2)c(C)c1
Activity (Mu-type opioid receptor [1]): 32.6%
EC50 (Mu-type opioid receptor [2]): 14 µM

COc1cccc(Nc2nc(-c3sc(C)nc3C)cs2)c1C
Activity (Mu-type opioid receptor [1]): 27.2%
EC50 (Mu-type opioid receptor [2]): 3.3 µM

Cc1cc(C)c(Nc2nc(-c3oc(C)nc3C)cs2)c(C)c1
Activity (Mu-type opioid receptor [1]): 43.2%
EC50 (Mu-type opioid receptor [2]): 3.9 µM

Cc1ccc(Nc2nc(-c3sc(C)nc3C)cs2)c(C)c1
Activity (Mu-type opioid receptor [1]): 57.2%
EC50 (Mu-type opioid receptor [2]): 8.8 µM

CCc1ccccc1Nc1ncc(-c2sc(C)nc2C)o1
Activity (Mu-type opioid receptor [1]): 34.4%
EC50 (Mu-type opioid receptor [2]): 13.3 µM

Cc1nc(C)c(-c2csc(Nc3c(C(C)C)cccc3C(C)C)n2)s1
Activity (Mu-type opioid receptor [1]): inactive
EC50 (Mu-type opioid receptor [2]): > 30 µM

CCc1ccccc1Nc1nc(-c2sc(N)nc2C)cs1
Activity (Mu-type opioid receptor [1]): inactive
EC50 (Mu-type opioid receptor [2]): > 30 µM

CCc1cc(Br)ccc1Nc1nc(-c2sc(C)nc2C)cs1
Activity (Mu-type opioid receptor [1]): 5.9%
EC50 (Mu-type opioid receptor [2]): 4.9 µM

CCc1ccccc1Nc1nc(C)cs1
Activity (Mu-type opioid receptor [1]): inactive
EC50 (Mu-type opioid receptor [2]): > 30 µM

CCc1ccccc1Nc1nc(-c2sc(C)nc2C)cs1
AUC (Mus musculus [3]): 160 min.sec
Activity (Mus musculus [4]): Dose-dependent effect
Activity (Mus musculus [5]): inactive
Activity [6]: 100 mg/kg
Activity [7]: Non-Toxic
Activity (Mus musculus [8]): Active
Activity (Mus musculus [9]): inactive
AUC (Mus musculus [10]): 384 min.sec
ED50 (Mus musculus [11]): 17.5 mg/kg
AUC (Mus musculus [12]): 115 min.sec

Cc1nc(C)c(-c2csc(N)n2)s1
Activity (Mu-type opioid receptor [1]): inactive
EC50 (Mu-type opioid receptor [2]): > 30 µM

Cc1nc(C)c(-c2csc(Nc3ccc(Br)cc3C(F)(F)F)n2)s1
Activity (Mu-type opioid receptor [1]): 32.9%
EC50 (Mu-type opioid receptor [2]): 13.8 µM

CCc1ccccc1Nc1nc(-c2sc(-c3ccccc3)nc2C)cs1
Activity (Mu-type opioid receptor [1]): inactive
EC50 (Mu-type opioid receptor [2]): > 30 µM

CCc1ccccc1Nc1nc(-c2sc(NC(C)=O)nc2C)cs1
Activity (Mu-type opioid receptor [1]): inactive
EC50 (Mu-type opioid receptor [2]): > 30 µM

C=CCN1CC[C@]23c4c5ccc(O)c4O[C@H]2C(=O)CC[C@@]3(O)[C@H]1C5
Activity (Mus musculus [13]): inactive

CCc1ccccc1Nc1nc(-c2sc(C)nc2C)c(C)s1
Activity (Mu-type opioid receptor [1]): inactive
EC50 (Mu-type opioid receptor [2]): > 30 µM

Cc1cc(C)c(Nc2nc(-c3sc(C)nc3C)cs2)c(C)c1
Activity (Mu-type opioid receptor [1]): 52%
EC50 (Mu-type opioid receptor [2]): 6.1 µM
